These results are taken from ChEMBL document CHEMBL5131501, “Discovery and evaluation of chalcone derivatives as novel potential anti-Toxoplasma gondii agents” (Eur J Med Chem, 2022).

SMILES strings stand for the structures. Calls of active or inactive are those of the source. No cut-off for these calls is given here.

The first assay has as its system Toxoplasma gondii. In words: Anti-tachyzoite activity against Toxoplasma gondii RH infected in Kunming mouse model assessed as inhibition of growth rate in peritoneal fluid at 100 mg/kg, ip administered daily for 4 days after 4 hrs post infection. The assay is classed as functional. Also noted: scale not given: the % may be the effect or the level left. As to conditions: time 4 day.
With `CO[C@@H]1[C@@H](O[C@@H]2O[C@H](C)[C@@H](O[C@H]3C[C@@](C)(O)[C@@H](O)[C@H](C)O3)[C@H](N(C)C)[C@H]2O)[C@@H](CC=O)C[C@@H](C)[C@@H](O[C@H]2CC[C@H](N(C)C)[C@@H](C)O2)/C=C/C=C/C[C@@H](C)OC(=O)C[C@H]1OC(C)=O`, the Activity came to 74.6%.

Another assay has as its system Toxoplasma gondii. Put plainly: Anti-tachyzoite activity against Toxoplasma gondii RH infected in kunming mouse model assessed as decrease in serum AST level at 100 mg/kg, ip administered daily for 4 days after 4 hrs post infection. The assay is classed as functional, organism-based. The note with it: time 4.0 day.
Consider `CO[C@@H]1[C@@H](O[C@@H]2O[C@H](C)[C@@H](O[C@H]3C[C@@](C)(O)[C@@H](O)[C@H](C)O3)[C@H](N(C)C)[C@H]2O)[C@@H](CC=O)C[C@@H](C)[C@@H](O[C@H]2CC[C@H](N(C)C)[C@@H](C)O2)/C=C/C=C/C[C@@H](C)OC(=O)C[C@H]1OC(C)=O`, for which the result was Active.

The subject of the next assay is Toxoplasma gondii. In words: Anti-tachyzoite activity against Toxoplasma gondii RH infected in human HFF cells assessed as mortality rate at 50 uM incubated for 2 hrs by trypan blue staining based light microscopic analysis.
Conditions: not given
In kind it is functional, organism-based.
In the case of `CCNc1ccc(C(=O)/C=C/c2cccc(OC)c2OC)cc1`, the outcome was Active.
Still for that read-out and setting: under `COc1ccc(C(=O)/C=C/c2ccc(O)cc2)cc1` stands “Active”.
For `CCNc1ccc(C(=O)/C=C/c2ccc(Cl)c(Cl)c2)cc1`, the outcome was Active.
For `O=C(/C=C/c1ccccc1Br)c1cc(F)cc(F)c1`, the result was Active.
Consider `COc1ccc(C(=O)/C=C/c2ccc(O)cc2)cc1OC`, for which the result was Active.
Still for that read-out and setting: for `CC(=O)Nc1ccc(C(=O)/C=C/c2ccc(Cl)c(Cl)c2)cc1` the value was “Active”.
On the same count and under the same terms, for `CC(=O)Nc1ccc(C(=O)/C=C/c2ccccc2Br)cc1` the value was “Active”; for `CC(C)Nc1ccc(C(=O)/C=C/c2ccccc2Br)cc1`, “Active”; for `O=C(/C=C/c1ccccc1Cl)c1cc(F)cc(F)c1`, “Active”.
For `CCNc1ccc(C(=O)/C=C/c2ccccc2Br)cc1`, the result was Active.
Regarding `CCNc1cccc(C(=O)/C=C/c2cccc(OC)c2OC)c1`, the outcome was Active.
For `Nc1ccc(C(=O)CCc2ccc(Cl)c(Cl)c2)cc1`, the outcome was Active.
Still for that read-out and setting: for `COc1ccc(C(=O)/C=C/c2ccccc2OC)cc1O` the value was “Active”; for `CC(C)Nc1ccc(C(=O)/C=C/c2ccc(Cl)c(Cl)c2)cc1`, “Active”.
Same read-out and setting: under `Nc1ccc(C(=O)CCc2ccccc2Br)cc1` stands “Active”.
For `O=C(/C=C/c1ccc(Cl)c(Cl)c1)c1cc(F)cc(F)c1`, the result was Active.
On to `COc1ccc(C(=O)/C=C/c2ccccc2Cl)cc1`, for which the outcome was Active.
Same read-out and setting: for `COc1ccc(C(=O)/C=C/c2ccccc2Cl)cc1O` the value was “Active”; for `COc1cccc(/C=C/C(=O)c2cccc(NC(C)=O)c2)c1OC`, “Active”; for `COc1cccc(/C=C/C(=O)c2ccc(NC(C)C)cc2)c1OC`, “Active”.
Consider `COc1cccc(CCC(=O)c2cccc(N)c2)c1OC`, for which the result was Active.
With `COc1cccc(/C=C/C(=O)c2cccc(NC(C)C)c2)c1OC`, the outcome was Active.
Same read-out and setting: under `COc1cccc(CCC(=O)c2ccc(N)cc2)c1OC` stands “Active”; under `COc1cccc(/C=C/C(=O)c2ccc(NC(C)=O)cc2)c1OC`, “Active”.

The next assay concerns Toxoplasma gondii. Put plainly: Anti-tachyzoite activity against Toxoplasma gondii RH infected in kunming mouse model assessed as decrease in serum ALT level at 100 mg/kg, ip administered daily for 4 days after 4 hrs post infection. In kind it is functional, organism-based. The note with it: time 4.0 day.
In the case of `CO[C@@H]1[C@@H](O[C@@H]2O[C@H](C)[C@@H](O[C@H]3C[C@@](C)(O)[C@@H](O)[C@H](C)O3)[C@H](N(C)C)[C@H]2O)[C@@H](CC=O)C[C@@H](C)[C@@H](O[C@H]2CC[C@H](N(C)C)[C@@H](C)O2)/C=C/C=C/C[C@@H](C)OC(=O)C[C@H]1OC(C)=O`, the outcome was Active.

For a further assay, the system named is Toxoplasma gondii. Put plainly: Anti-tachyzoite activity against Toxoplasma gondii RH infected in kunming mouse model assessed as decrease in malondialdehyde lipid peroxidation in liver at 100 mg/kg, ip administered daily for 4 days after 4 hrs post infection. In kind it is functional, organism-based. As to conditions: time 4.0 day.
Consider `CO[C@@H]1[C@@H](O[C@@H]2O[C@H](C)[C@@H](O[C@H]3C[C@@](C)(O)[C@@H](O)[C@H](C)O3)[C@H](N(C)C)[C@H]2O)[C@@H](CC=O)C[C@@H](C)[C@@H](O[C@H]2CC[C@H](N(C)C)[C@@H](C)O2)/C=C/C=C/C[C@@H](C)OC(=O)C[C@H]1OC(C)=O`, for which the result was Active.
